# Assay results reported in article PMC11042424, “Development of a First-in-Class RIPK1 Degrader to Enhance Antitumor Immunity” (Research Square, 2024).
# Molecular target: T1, GST-tagged human RIPK1 (Homo sapiens, UniProt Q13546)
# T1 construct: purchased SignalChem R07–11G-10
# T1 sequence (Q13546 1-327 limits assumed): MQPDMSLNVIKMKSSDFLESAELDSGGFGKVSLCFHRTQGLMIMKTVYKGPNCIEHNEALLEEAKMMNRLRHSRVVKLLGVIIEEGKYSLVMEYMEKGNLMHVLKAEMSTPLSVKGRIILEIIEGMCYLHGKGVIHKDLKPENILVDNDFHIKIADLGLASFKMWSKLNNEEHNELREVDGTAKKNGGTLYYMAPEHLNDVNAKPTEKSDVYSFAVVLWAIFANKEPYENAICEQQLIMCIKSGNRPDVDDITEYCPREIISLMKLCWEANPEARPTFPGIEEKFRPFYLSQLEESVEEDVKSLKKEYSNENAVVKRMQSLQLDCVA
# Assay: TR-FRET biochemical binding assay for RIPK1
# Method: Figure 2 LD4172, a RIPK1 PROTAC, induces potent and highly specific degradation of RIPK1 in a panel of cell lines. A, Chemical structures of RIPK1 PROTAC, LD4172, and its negative control, LD4172-NC. […] B, Quantification of RIPK1 levels in both Jurkat and B16F10 cells treated with LD4172 at indicated concentrations for 24 h, followed by Western blotting. C, DC50 and Dmax of LD4172 in various human and mouse cell lines. DC50, the drug concentration causing 50% protein degradation; Dmax, the maximum level of protein degradation. D, RIPK1 degradation kinetics induced by LD4172 treatment (1 μM) and resynthesis kinetics upon washout of LD4172 in both Jurkat and B16F10 cells. […] G, Time-resolved fluorescence resonance energy transfer (TR-FRET) based biochemical binding assay for RIPK1. […] In total, ~10,000 proteins were quantified in the proteomics experiment. […]
# A time-resolved fluorescence resonance energy transfer (TR-FRET) assay was performed to evaluate the binding of the indicated compounds and RIPK1 by competition with a BODIPY-FL labeled RIPK1 tracer (Supplementary Information, T2I-488). […] The assay mixtures were incubated at room temperature in the dark for 120 min, and the signals were collected using a BioTek Synergy H1 microplate reader to measure the fluorescence emission ratio (I520 nm/I490 nm) of each well using a 340-nm excitation filter, a 100-μs delay, and a 200-μs integration time. […]
structure (smiles),measurement,setting,value
Cc1ncsc1-c1ccc([C@H](C)NC(=O)[C@@H]2C[C@@H](O)CN2C(=O)[C@@H](NC(=O)CCCCCCCCCCC(=O)NCCCn2cc(-c3ccc4c(c3)CCN4C(=O)Cc3cccc(OC(F)(F)F)c3)c3c(N)ncnc32)C(C)(C)C)cc1 [LD4172],IC50,"2 hours incubation, n=3, read-out: IC50, Fig. 2G",9.6 nM
same,Ki,recombinant human RIPK1 protein,4.8 nM
